Our source for the IC50 values is ChEMBL document CHEMBL5385921, “Kagimminols A and B, Cembrene-Type Diterpenes from an Okeania sp. Marine Cyanobacterium” (J Nat Prod, 2024).

As usually defined, the IC50 is the point on the concentration scale where inhibition reaches its midpoint.

Assay [1] relates to Trypanosoma brucei rhodesiense. The experiment in a line: Antitrypanosomal activity against blood stream form of Trypanosoma brucei rhodesiense IL-1501 assessed as growth inhibition incubated for 69 hrs by alamar blue staining based microplate fluorescence scanner analysis. As to conditions: IL-1501, 69 h. The class given is functional, organism-based.
For a further assay, the system named is HeLa. The experiment in a line: Antiproliferative activity against human HeLa cells assessed as inhibition of cell growth incubated for 72 hrs by MTT assay. Type of assay: functional, cell-based. In general terms: Tetrazolium assays rely on reduction of a dye to a coloured formazan, in cell work by metabolically active cells.

Where a name gives a salt, the structure may show the parent alone.

On to `CC(=O)O[C@H]1C[C@](C)(O)C(=O)/C=C(\O)[C@](C)(O)CCC/C(C)=C/C=C\1C(C)C`, for which the values for the IC50 (in assay [1]; in the assay on HeLa) were 3.4 µM and > 30 µM, respectively. Take `COc1cccc2c1C(=O)c1c(O)c3c(c(O)c1C2=O)C[C@@](O)(C(=O)CO)C[C@@H]3O[C@H]1C[C@H](N)[C@H](O)[C@H](C)O1` [DOXORUBICIN HYDROCHLORIDE]: the 50% inhibitory concentration (IC50) with HeLa is 0.5 µM. For the molecule `C/C1=C\C=C(\C(C)C)[C@@H](O)C[C@](C)(O)C(=O)CC/C(C)=C/CC1`, the IC50 is 10 µM in assay [1] and > 30 µM in the assay with HeLa.
